Reference: ChEMBL document CHEMBL1143948, “Hepatitis C virus NS3 protease inhibitors comprising a novel aromatic P1 moiety” (Bioorg Med Chem, 2008)

What was measured:
[1] = tested on: Hepatitis C virus; experiment: Antiviral activity against Hepatitis C virus infected human hepatoma cells by replicon assay; format: functional, organism-based, Hepacivirus hominis
[2] = Inhibition of HCV NS3 protease by FRET assay; set-up: species or system Hepacivirus hominis
[3] = Cytotoxicity against human hepatoma cells; format: cell-based

SMILES | Ki [2] [nM] | also measured
COc1ccc2c(O[C@@H]3C[C@H]4C(=O)N[C@]5(C(=O)O)C[C@H]5/C=C\CCCCC[C@H](NC(=O)OC5CCCC5)C(=O)N4C3)cc(-c3csc(NC(C)C)n3)nc2c1 [CILUPREVIR] | 0.66 | EC50 [1]: 3 nM
COc1ccc2c(O[C@@H]3C[C@@H](C(=O)Nc4ccc(C(=O)NS(=O)(=O)c5ccccc5)cc4)N(C(=O)[C@@H](NC(=O)OC(C)(C)C)C(C)(C)C)C3)cc(-c3ccccc3)nc2c1 | 1100 | –
COc1ccc2c(O[C@@H]3C[C@@H](C(=O)O)N(C(=O)[C@@H](NC(=O)OC(C)(C)C)C(C)(C)C)C3)cc(-c3ccccc3)nc2c1 [CORBOXYLIC ACID] | 66000 | –
COc1ccc2c(O[C@@H]3C[C@@H](C(=O)Nc4ccccc4CC(=O)O)N(C(=O)[C@@H](NC(=O)OC(C)(C)C)C(C)(C)C)C3)cc(-c3ccccc3)nc2c1 | 17000 | –
COc1ccc2c(O[C@@H]3C[C@@H](C(=O)Nc4c(C)cccc4C(=O)NS(=O)(=O)c4ccccc4)N(C(=O)[C@@H](NC(=O)OC(C)(C)C)C(C)(C)C)C3)cc(-c3ccccc3)nc2c1 | 3200 | –
COc1ccc2c(O[C@@H]3C[C@@H](C(=O)Nc4ccccc4C(=O)NS(=O)(=O)c4ccc(C(F)(F)F)cc4)N(C(=O)[C@@H](NC(=O)OC(C)(C)C)C(C)(C)C)C3)cc(-c3ccccc3)nc2c1 | 310 | –
COc1ccc2c(O[C@@H]3C[C@@H](C(=O)Nc4cc(C(F)(F)F)ccc4C(=O)NS(=O)(=O)c4ccccc4)N(C(=O)[C@@H](NC(=O)OC(C)(C)C)C(C)(C)C)C3)cc(-c3ccccc3)nc2c1 | 350 | EC50 [1]: 5200 nM; CC50 [3]: 28000 nM
COc1ccc2c(O[C@@H]3C[C@@H](C(=O)Nc4cccc(C(=O)O)c4)N(C(=O)[C@@H](NC(=O)OC(C)(C)C)C(C)(C)C)C3)cc(-c3ccccc3)nc2c1 | 6800 | –
COc1ccc2c(O[C@@H]3C[C@@H](C(=O)Nc4ccc(C(=O)O)cc4)N(C(=O)[C@@H](NC(=O)OC(C)(C)C)C(C)(C)C)C3)cc(-c3ccccc3)nc2c1 | 12000 | –
COc1ccc2c(O[C@@H]3C[C@@H](C(=O)Nc4ccccc4C(=O)NS(=O)(=O)C4CC4)N(C(=O)[C@@H](NC(=O)OC(C)(C)C)C(C)(C)C)C3)cc(-c3ccccc3)nc2c1 | 2000 | –
CC(C)(C)OC(=O)N[C@H]1CCCCC/C=C\[C@@H]2C[C@@]2(C(=O)NS(=O)(=O)C2CC2)NC(=O)[C@@H]2C[C@@H](OC(=O)N3Cc4cccc(F)c4C3)CN2C1=O [DANOPREVIR] | – | EC50 [1]: 2.1 nM; IC50 [2]: < 0.25 nM
COc1ccc2c(O[C@@H]3C[C@@H](C(=O)Nc4ccccc4C(=O)NS(=O)(=O)c4ccccc4)N(C(=O)[C@@H](NC(=O)OC(C)(C)C)C(C)(C)C)C3)cc(-c3ccccc3)nc2c1 | 830 | –
COc1ccc2c(O[C@@H]3C[C@@H](C(=O)Nc4ccccc4Br)N(C(=O)[C@@H](NC(=O)OC(C)(C)C)C(C)(C)C)C3)cc(-c3ccccc3)nc2c1 | 3900 | –
COc1ccc2c(O[C@@H]3C[C@@H](C(=O)Nc4ccc(Br)cc4)N(C(=O)[C@@H](NC(=O)OC(C)(C)C)C(C)(C)C)C3)cc(-c3ccccc3)nc2c1 | 1800 | –
COc1ccc2c(O[C@@H]3C[C@@H](C(=O)Nc4ccccc4C(=O)NS(=O)(=O)c4cccs4)N(C(=O)[C@@H](NC(=O)OC(C)(C)C)C(C)(C)C)C3)cc(-c3ccccc3)nc2c1 | 920 | –
COc1ccc2c(O[C@@H]3C[C@@H](C(=O)Nc4cccc(Br)c4)N(C(=O)[C@@H](NC(=O)OC(C)(C)C)C(C)(C)C)C3)cc(-c3ccccc3)nc2c1 | 1400 | –
COc1ccc2c(O[C@@H]3C[C@@H](C(=O)Nc4ccccc4C(=O)NS(C)(=O)=O)N(C(=O)[C@@H](NC(=O)OC(C)(C)C)C(C)(C)C)C3)cc(-c3ccccc3)nc2c1 | 5900 | –
COc1ccc2c(O[C@@H]3C[C@@H](C(=O)Nc4ccccc4C(=O)O)N(C(=O)[C@@H](NC(=O)OC(C)(C)C)C(C)(C)C)C3)cc(-c3ccccc3)nc2c1 | 5000 | –
CCC[C@H](NC(=O)[C@@H]1[C@H]2CCC[C@H]2CN1C(=O)[C@@H](NC(=O)[C@@H](NC(=O)c1cnccn1)C1CCCCC1)C(C)(C)C)C(=O)C(=O)NC1CC1 [TELAPREVIR] | 39 | EC50 [1]: 310 nM
COc1ccc2c(O[C@@H]3C[C@@H](C(=O)Nc4ccccc4C(=O)NS(=O)(=O)Cc4ccccc4)N(C(=O)[C@@H](NC(=O)OC(C)(C)C)C(C)(C)C)C3)cc(-c3ccccc3)nc2c1 | 610 | –
CC(C)(C)NC(=O)N[C@H](C(=O)N1C[C@H]2[C@@H]([C@H]1C(=O)NC(CC1CCC1)C(=O)C(N)=O)C2(C)C)C(C)(C)C (stereo partly drawn) [BOCEPREVIR] | 14 | –
COc1ccc2c(O[C@@H]3C[C@@H](C(=O)Nc4cccc(C(=O)NS(=O)(=O)c5ccccc5)c4)N(C(=O)[C@@H](NC(=O)OC(C)(C)C)C(C)(C)C)C3)cc(-c3ccccc3)nc2c1 | 780 | –
COc1ccc(S(=O)(=O)NC(=O)c2ccccc2NC(=O)[C@@H]2C[C@@H](Oc3cc(-c4ccccc4)nc4cc(OC)ccc34)CN2C(=O)[C@@H](NC(=O)OC(C)(C)C)C(C)(C)C)cc1 | 1200 | –
